Species: Rattus norvegicus
Experiment: Open TG-GATES - Regimen: Daily Repeat
Type: toxicity, organism-based, Sprague-Dawley
Set-up: regimen Daily Repeat, gender Male, age 6 weeks
Settings: in vivo, po, 1000 mg/kg, route gavage, dose level High; for APTT / Bas / Eos / Fbg / Hb / Ht / Lym / MCH / MCHC / MCV / Mono / Neu / PT / Plat / RBC / Ret / WBC: tissue Blood; for KIDNEY_L / KIDNEY_R / KIDNEY_TOTAL: tissue Kidney; for LIVER: tissue Liver; for ALP / AST / BUN / CRE / Ca / Cl / DBIL / GLC / IP / K / LDH / Na / PL / RALB / TBIL / TC / TG / TP / gamma-GTP: tissue Plasma

COc1ccc2[nH]c([S+]([O-])Cc3ncc(C)c(OC)c3C)nc2c1 (centres undefined) [OMEPRAZOLE]
TERMINAL_BW (72 h, time 3 day): 219.1 g
APTT (72 h, time 3 day): 19.8 s
Bas (72 h, time 3 day): 0%
Eos (72 h, time 3 day): 0.6%
Fbg (72 h, time 3 day): 196 mg/dL
Hb (72 h, time 3 day): 13.8 g/dL
Ht (72 h, time 3 day): 39.6%
Lym (72 h, time 3 day): 83.2%
MCH (72 h, time 3 day): 20.8 pg
MCHC (72 h, time 3 day): 34.8%
MCV (72 h, time 3 day): 59.9 fL
Mono (72 h, time 3 day): 3.8%
Neu (72 h, time 3 day): 11.8%
PT (72 h, time 3 day): 12.1 s
Plat (72 h, time 3 day): 132.7 x10_4/uL
RBC (72 h, time 3 day): 662.2 x10_4/ul
Ret (72 h, time 3 day): 1.7%
WBC (72 h, time 3 day): 99.5 x10_2/uL
KIDNEY_L (72 h, time 3 day): 1 g
KIDNEY_R (72 h, time 3 day): 1 g
KIDNEY_TOTAL (72 h, time 3 day): 1.9 g
LIVER (72 h, time 3 day): 15.4 g
ALP (72 h, time 3 day): 629 IU/L
AST (72 h, time 3 day): 46 IU/L
BUN (72 h, time 3 day): 17.6 mg/dL
CRE (72 h, time 3 day): 0.4 mg/dL
Ca (72 h, time 3 day): 10 mg/dL
Cl (72 h, time 3 day): 101.8 meq/L
DBIL (72 h, time 3 day): 0.094 mg/dL
GLC (72 h, time 3 day): 195 mg/dL
IP (72 h, time 3 day): 7.5 mg/dL
K (72 h, time 3 day): 3.8 meq/L
LDH (72 h, time 3 day): 200 IU/L
Na (72 h, time 3 day): 140.2 meq/L
PL (72 h, time 3 day): 207.4 mg/dL
RALB (72 h, time 3 day): 3.3 g/dL
TBIL (72 h, time 3 day): 0.2 mg/dL
TC (72 h, time 3 day): 120.8 mg/dL
TG (72 h, time 3 day): 157.2 mg/dL
TP (72 h, time 3 day): 5.6 g/dL
gamma-GTP (72 h, time 3 day): 2 IU/L
TERMINAL_BW ([…], time 7 day): 262 g
TERMINAL_BW ([…], time 14 day): 300.1 g
TERMINAL_BW ([…], time 28 day): 351.8 g
APTT ([…], time 7 day): 21.9 s
Bas ([…], time 7 day): 0%
Eos ([…], time 7 day): 0.6%
Fbg ([…], time 7 day): 215.2 mg/dL
Hb ([…], time 7 day): 12 g/dL
Ht ([…], time 7 day): 34.9%
Lym ([…], time 7 day): 80.4%
MCH ([…], time 7 day): 20.3 pg
MCHC ([…], time 7 day): 34.4%
MCV ([…], time 7 day): 59 fL
Mono ([…], time 7 day): 3.8%
Neu ([…], time 7 day): 14.6%
PT ([…], time 7 day): 11.9 s
Plat ([…], time 7 day): 171.4 x10_4/uL
RBC ([…], time 7 day): 591.8 x10_4/ul
Ret ([…], time 7 day): 4.3%
WBC ([…], time 7 day): 118.3 x10_2/uL
APTT ([…], time 14 day): 24.5 s
Bas ([…], time 14 day): 0%
Eos ([…], time 14 day): 0.6%
Fbg ([…], time 14 day): 203.8 mg/dL
Hb ([…], time 14 day): 11.7 g/dL
Ht ([…], time 14 day): 34.1%
Lym ([…], time 14 day): 82.2%
MCH ([…], time 14 day): 18.6 pg
MCHC ([…], time 14 day): 34.2%
MCV ([…], time 14 day): 54.3 fL
Mono ([…], time 14 day): 2.6%
Neu ([…], time 14 day): 13%
PT ([…], time 14 day): 12.7 s
Plat ([…], time 14 day): 139.7 x10_4/uL
RBC ([…], time 14 day): 628.4 x10_4/ul
Ret ([…], time 14 day): 5%
WBC ([…], time 14 day): 131 x10_2/uL
APTT ([…], time 28 day): 23.8 s
Bas ([…], time 28 day): 0%
Eos ([…], time 28 day): 0.6%
Fbg ([…], time 28 day): 196.8 mg/dL
Hb ([…], time 28 day): 12 g/dL
Ht ([…], time 28 day): 35.7%
Lym ([…], time 28 day): 78.6%
MCH ([…], time 28 day): 17.3 pg
MCHC ([…], time 28 day): 33.7%
MCV ([…], time 28 day): 51.3 fL
Mono ([…], time 28 day): 2.2%
Neu ([…], time 28 day): 17.6%
PT ([…], time 28 day): 12.3 s
Plat ([…], time 28 day): 124 x10_4/uL
RBC ([…], time 28 day): 697.2 x10_4/ul
Ret ([…], time 28 day): 4%
WBC ([…], time 28 day): 152.6 x10_2/uL
KIDNEY_L ([…], time 7 day): 1.1 g
KIDNEY_R ([…], time 7 day): 1.1 g
KIDNEY_TOTAL ([…], time 7 day): 2.1 g
KIDNEY_L ([…], time 14 day): 1.2 g
KIDNEY_R ([…], time 14 day): 1.2 g
KIDNEY_TOTAL ([…], time 14 day): 2.3 g
KIDNEY_L ([…], time 28 day): 1.2 g
KIDNEY_R ([…], time 28 day): 1.2 g
KIDNEY_TOTAL ([…], time 28 day): 2.5 g
LIVER ([…], time 7 day): 18.1 g
LIVER ([…], time 14 day): 21.2 g
LIVER ([…], time 28 day): 21.4 g
ALP ([…], time 7 day): 661.8 IU/L
AST ([…], time 7 day): 59.2 IU/L
BUN ([…], time 7 day): 16.6 mg/dL
CRE ([…], time 7 day): 0.4 mg/dL
Ca ([…], time 7 day): 10.7 mg/dL
Cl ([…], time 7 day): 101.4 meq/L
DBIL ([…], time 7 day): 0.064 mg/dL
GLC ([…], time 7 day): 187.4 mg/dL
IP ([…], time 7 day): 8.2 mg/dL
K ([…], time 7 day): 3.9 meq/L
LDH ([…], time 7 day): 242.4 IU/L
Na ([…], time 7 day): 140.6 meq/L
PL ([…], time 7 day): 200.8 mg/dL
RALB ([…], time 7 day): 3.5 g/dL
TBIL ([…], time 7 day): 0.1 mg/dL
TC ([…], time 7 day): 117.6 mg/dL
TG ([…], time 7 day): 62.4 mg/dL
TP ([…], time 7 day): 6.2 g/dL
gamma-GTP ([…], time 7 day): 2.6 IU/L
ALP ([…], time 14 day): 599 IU/L
AST ([…], time 14 day): 52.6 IU/L
BUN ([…], time 14 day): 18.2 mg/dL
CRE ([…], time 14 day): 0.5 mg/dL
Ca ([…], time 14 day): 10.8 mg/dL
Cl ([…], time 14 day): 102.8 meq/L
DBIL ([…], time 14 day): 0.072 mg/dL
GLC ([…], time 14 day): 191.4 mg/dL
IP ([…], time 14 day): 7.8 mg/dL
K ([…], time 14 day): 3.9 meq/L
LDH ([…], time 14 day): 195.8 IU/L
Na ([…], time 14 day): 141.2 meq/L
PL ([…], time 14 day): 206.6 mg/dL
RALB ([…], time 14 day): 3.6 g/dL
TBIL ([…], time 14 day): 0.1 mg/dL
TC ([…], time 14 day): 120.8 mg/dL
TG ([…], time 14 day): 77.8 mg/dL
TP ([…], time 14 day): 6.3 g/dL
gamma-GTP ([…], time 14 day): 2.2 IU/L
ALP ([…], time 28 day): 458.4 IU/L
AST ([…], time 28 day): 50.6 IU/L
BUN ([…], time 28 day): 18.2 mg/dL
CRE ([…], time 28 day): 0.5 mg/dL
Ca ([…], time 28 day): 10.7 mg/dL
Cl ([…], time 28 day): 102.2 meq/L
DBIL ([…], time 28 day): 0.07 mg/dL
GLC ([…], time 28 day): 190.8 mg/dL
IP ([…], time 28 day): 6.9 mg/dL
K ([…], time 28 day): 3.9 meq/L
LDH ([…], time 28 day): 119.2 IU/L
Na ([…], time 28 day): 142.6 meq/L
PL ([…], time 28 day): 185.8 mg/dL
RALB ([…], time 28 day): 3.8 g/dL
TBIL ([…], time 28 day): 0.1 mg/dL
TC ([…], time 28 day): 102.4 mg/dL
TG ([…], time 28 day): 49 mg/dL
TP ([…], time 28 day): 6.6 g/dL
gamma-GTP ([…], time 28 day): 2.4 IU/L

— ChEMBL document CHEMBL3885861, “Open TG-GATES”
